Source: paper PMC11093748, “De novo identification of CD4^+ T cell epitopes” (Nature Methods, 2024)

Experiments:
Experiment in all cases: I-Ag7 SABR-II library screen, enrichment score
Format in all cases: cell-based, mouse
TCR28 = details: TCR_Mean minus PREDICTED_TCR (slope 0.899229, intercept 2.47291e-5 on LIB_Mean), TCR 28, run PZ57
Source text: (§1) We then asked whether SABR-IIs could be used to present a library of epitopes for CD4^+ T cell antigen discovery. To that end, we constructed a SABR-II library to present epitopes derived from pancreatic islets in I-Ag7 by curating a list of 4,075 published epitopes from the Immune Epitope Database (iedb.org)[50] and a study by Wan et al.[51] (Supplementary Table 1). Of note, this defined library consisted of unmodified epitopes from endogenous proteins, synthetic mimotopes, deamidated epitopes and hybrid insulin peptides (HIPs) that arise from post-translational fusion and are not genetically encoded in vivo[52],[53]. The epitope library was inserted into the I-Ag7 SABR-II backbone through pooled oligonucleotide synthesis, amplification and ligation-free cloning (Extended Data Fig. 3a). The I-Ag7 SABR-II-library was then expressed in NFAT–GFP Jurkat cells. We confirmed that after sequencing, the library accounted for a mean of 708 reads per epitope (Extended Data Fig. 3b). As a proof of concept, we performed co-incubation assays with Jurkat cells expressing the BDC2.5 TCR and sorted the top 1–2% of GFP^+CD69^+ cells at a rate of ~20 min per replicate with three replicates per TCR. We extracted the genomic DNA from sorted cells, amplified the SABR portion of the integrated proviruses and subjected the amplicons to Illumina sequencing (Extended Data Fig. 3c,d). The 1–2% sort gate represents >50-fold enrichment of cognate epitopes with minimal loss of signal (Extended Data Fig. 3e–h). Sequence reads were aligned to the I-Ag7 SABR-II backbone and the corresponding epitopes were scored based on their read counts. For each TCR under investigation, an enrichment score (ES) was determined for all the epitopes in a library. In each experiment, three replicates of a sort with TCR-expressing Jurkat cells were performed and reads were counted post-sequencing. In addition, three replicates of the unsorted library were also sequenced. A linear regression model was built using the unsorted library counts and used to determine the expected abundance of each epitope in the library. The ES was calculated based on the difference between the measured and the expected abundance of each epitope on a per-TCR basis (Fig. 1e). Based on ES values, two quantitative thresholds were used to determine putative cognate epitopes of a given TCR. A high-confidence zone containing clear outliers with a high ES and a low-confidence zone containing weak outliers with a moderately high ES were determined (Fig. 1e). This two-tiered strategy was used to call putative hits from screens. All the top-scoring epitopes for the BDC2.5 TCR were known BDC2.5 ligands containing the WXRM(D/E) motif (Fig. 1f,g, enriched ligands in red), a well-characterized trait of the BDC2.5 TCR[43],[54]–[56]. Across several independent experiments there was limited variation in ES values for the same TCRs and several epitopes fell into high- or low-confidence zones consistently (Extended Data Fig. 4a). Using a different TCR that was isolated from NOD mice, 4-8Ins[57], which recognized the InsB9:23 epitope ([…]), we observed a similar pattern of ES for cognate epitopes (Extended Data Fig. 4b).
(§2) We performed systematic screening of the cloned TCRs against the I-Ag7 SABR-II library. Several TCRs along with a positive control (such as BDC2.5 or 4-8Ins) were screened individually against the library for each sort (Extended Data Fig. 6a and Supplementary Table 4). High- and low-confidence ES zones for each screened TCR were defined by the ES values of the control TCR’s cognate epitopes. For all putative cognate epitopes, single SABR-IIs were constructed, expressed in NFAT–GFP Jurkat cells and used for co-incubation with the corresponding TCRs. Co-incubation assays that yielded a GFP signal higher than that obtained in assays with no TCR were determined to be positive and the epitopes deemed true cognate ligands (Extended Data Fig. 6b,c). […]

TCR35 = details: TCR_Mean minus PREDICTED_TCR (slope 0.982658, intercept 4.25575e-6 on LIB_Mean), TCR 35, run PZ101
Source text: as §1, §2

TCR36 = details: TCR_Mean minus PREDICTED_TCR (slope 0.914754, intercept 2.09193e-5 on LIB_Mean), TCR 36, run PZ57
Source text: as §1, §2

TCR38 = details: I-Ag7 SABR-II library PZ101, CD4 TCR 38; TCR_Mean of 3 replicates minus PREDICTED_TCR (slope 0.968274, intercept 7.78554e-6)
Source text: as §1, §2

TCR1 = details: sheet TCR1-PZ44; ES = TCRObserved - TCRPredicted; TCRPredicted = LIBObserved x SLOPE + INTERCEPT; SLOPE 0.917532, INTERCEPT 2.02377e-5
Source text: as §1, §2

TCR3 = system: TCR3
Source text: as §1, §2

TCR21A = details: TCR_Mean minus PREDICTED_TCR (slope 0.957287, intercept 1.04818e-5 on LIB_Mean), TCR 21A, run PZ56
Source text: as §1, §2

TCR13 = system: TCR13
Source text: as §1, §2

TCR10B = details: TCR_Mean minus PREDICTED_TCR (from LIB_Mean, SLOPE 0.894516, INTERCEPT 2.58857e-5), PZ51
Source text: as §1, §2

TCR29 = details: TCR_Mean minus PREDICTED_TCR (slope 0.951614, intercept 1.18738e-5 on LIB_Mean), TCR 29, run PZ98
Source text: as §1, §2

TCR10A = details: TCR_Mean minus PREDICTED_TCR (from LIB_Mean, SLOPE 0.950997, INTERCEPT 1.20253e-5), PZ47
Source text: as §1, §2

TCR12 = details: TCR_Mean minus PREDICTED_TCR (from LIB_Mean, SLOPE 0.937219, INTERCEPT 1.54064e-5), PZ51
Source text: as §1, §2

TCR32 = details: TCR_Mean minus PREDICTED_TCR (slope 0.962506, intercept 9.20103e-6 on LIB_Mean), TCR 32, run PZ98
Source text: as §1, §2

[1] = I-Ag7 library, one biological experiment
[2] = sheet TCR3-PZ37, ES = TCRObserved - TCRPredicted, TCRPredicted = LIBObserved x SLOPE + INTERCEPT, SLOPE 0.907522, INTERCEPT 2.2694e-5
[3] = TCR13, TCR_Mean minus PREDICTED_TCR (from LIB_Mean, SLOPE 0.90397, INTERCEPT 2.35655e-5), PZ51

ALVREGLRNVAAGANP
Enrichment score (TCR28): -1.908e-5 | Enrichment score (TCR35): -4.256e-6 | Enrichment score (TCR36): -2.092e-5 | Enrichment score (TCR38): -7.786e-6 | Enrichment score (TCR1): -2.024e-5 | Enrichment score (TCR3; [1]): -2.328e-5 | Enrichment score (TCR3; [2]): -2.328e-5 | Enrichment score (TCR21A): -1.111e-5 | Enrichment score (TCR13; [1]): -2.357e-5 | Enrichment score (TCR13; [3]): -2.357e-5 | Enrichment score (TCR10B): -2.589e-5 | Enrichment score (TCR29): -1.187e-5 | Enrichment score (TCR10A): -1.221e-5 | Enrichment score (TCR12): -1.438e-5 | Enrichment score (TCR32): -9.201e-6

AKAAVEEGIVAGGGV
Enrichment score (TCR28): 0.000168 | Enrichment score (TCR35): -4.28e-5 | Enrichment score (TCR36): -3.854e-5 | Enrichment score (TCR38): -6.1876e-5 | Enrichment score (TCR1): -8.988e-5 | Enrichment score (TCR3; [1]): -0.0001294 | Enrichment score (TCR3; [2]): -0.0001294 | Enrichment score (TCR21A): -4.928e-5 | Enrichment score (TCR13; [1]): 0.0001008 | Enrichment score (TCR13; [3]): 0.0001008 | Enrichment score (TCR10B): 7.202e-5 | Enrichment score (TCR29): -1.352e-5 | Enrichment score (TCR10A): -4.524e-5 | Enrichment score (TCR12): -1.697e-5 | Enrichment score (TCR32): -4.13e-5

AEKVRNLPAGHGLNAQ
Enrichment score (TCR28): 9.652e-5 | Enrichment score (TCR35): -0.0001779 | Enrichment score (TCR36): -6.905e-5 | Enrichment score (TCR38): -3.923e-5 | Enrichment score (TCR1): 9.239e-5 | Enrichment score (TCR3; [1]): -2.569e-5 | Enrichment score (TCR3; [2]): -2.569e-5 | Enrichment score (TCR21A): 0.0001683 | Enrichment score (TCR13; [1]): 0.000137 | Enrichment score (TCR13; [3]): 0.000137 | Enrichment score (TCR10B): -0.0001336 | Enrichment score (TCR29): -9.799e-5 | Enrichment score (TCR10A): -7.319e-5 | Enrichment score (TCR12): -0.0001285 | Enrichment score (TCR32): 4.971e-5

AAVEEGIVAGGGVTLL
Enrichment score (TCR28): -8.055e-6 | Enrichment score (TCR35): -8.894e-5 | Enrichment score (TCR36): -0.0001187 | Enrichment score (TCR38): 0.0001517 | Enrichment score (TCR1): 0.0002622 | Enrichment score (TCR3; [1]): -0.00015 | Enrichment score (TCR3; [2]): -0.00015 | Enrichment score (TCR21A): 7.745e-5 | Enrichment score (TCR13; [1]): 0.0001546 | Enrichment score (TCR13; [3]): 0.0001546 | Enrichment score (TCR10B): -7.785e-5 | Enrichment score (TCR29): -4.805e-5 | Enrichment score (TCR10A): 0.0001778 | Enrichment score (TCR12): -3.643e-5 | Enrichment score (TCR32): 3.811e-5

AGGVAVIKAGAATEV
Enrichment score (TCR28): 5.039e-6 | Enrichment score (TCR35): 7.19e-5 | Enrichment score (TCR36): -1.016e-5 | Enrichment score (TCR38): 4.352e-5 | Enrichment score (TCR1): 3.28e-9 | Enrichment score (TCR3; [1]): -3.191e-5 | Enrichment score (TCR3; [2]): -3.191e-5 | Enrichment score (TCR21A): 3.881e-5 | Enrichment score (TCR13; [1]): 0.0001675 | Enrichment score (TCR13; [3]): 0.0001675 | Enrichment score (TCR10B): 1.586e-6 | Enrichment score (TCR29): -4.862e-5 | Enrichment score (TCR10A): -2.727e-5 | Enrichment score (TCR12): -1.359e-5 | Enrichment score (TCR32): 9.791e-5
